Assay results: article PMC4077824, “Conserved Prosegment Residues Stabilize a Late-Stage Folding Transition State of Pepsin Independently of Ground States” (PLoS ONE, 2014)
Where “and” joins values, the source holds several entries; their conditions need not be identical. Equal entries are not always repeated. Entries after “also recorded” stand apart in the source; their conditions may differ. Where no end group is shown, it is not given here.

Key:
refolded pepsin (Rp) [1] = biological target: T1, refolded pepsin (Rp) (Sus scrofa, UniProt P00791); experiment: PS-catalyzed folding of Rp to Np (recovery of Np activity); type: biochemical, porcine; details: for k f (PS-catalyzed folding rate constant): 1 µM Rp, 30 µM PS, pH 5.3 (20 mM acetic acid/NaOH, 100 mM NaCl), Np activity assayed at pH 1.2, 25°C with KPAEFF(NO2)AL, monoexponential fit, mean ± SD from non-linear curve fitting, 3-5 measurements; for k f (PS-catalyzed folding rate constant) / ΔΔG^‡ (change in folding activation energy upon mutation): 15°C; for ΔΔG^‡ (change in folding activation energy upon mutation): from k f, pH 5.3, relative to WT, ± SD by propagation of errors; for effect on rate of PS-catalyzed folding (in words): pH 5.3, 15°C, compared with PSwt
T1 construct: Only the R13 and K36 side-chains of the PS form hydrogen bonds with the mature pepsin domain; purchased Sigma (St. Louis, MO, USA)
T1 sequence (P00791 60-385): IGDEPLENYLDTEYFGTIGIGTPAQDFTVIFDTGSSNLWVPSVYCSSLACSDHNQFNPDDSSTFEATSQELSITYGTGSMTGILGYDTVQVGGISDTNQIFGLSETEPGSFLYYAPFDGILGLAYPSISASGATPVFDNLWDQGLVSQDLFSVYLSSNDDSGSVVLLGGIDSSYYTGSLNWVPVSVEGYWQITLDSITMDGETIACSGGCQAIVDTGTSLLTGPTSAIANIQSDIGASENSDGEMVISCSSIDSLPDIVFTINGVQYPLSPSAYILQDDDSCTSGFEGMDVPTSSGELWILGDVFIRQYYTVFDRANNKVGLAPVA
Protocol: PS-catalyzed folding of Rp to Np
PS-catalyzed folding was carried out by combining 1 µM Rp and 30 µM PS, in a volume of 100 µl, at pH 5.3 (20 mM acetic acid/NaOH with 100 mM NaCl) and 15°C. Aliquots were taken at several time intervals, diluted 20-fold in 50 mM phosphoric acid buffer, pH 1.2, incubated for 5 min at 25°C and assayed for Np activity using the KPAEFF(NO2)AL substrate. The recovery of Np activity with time, t, was fit with a monoexponential function (y = a – bexp(–k f t)) to obtain the PS-catalyzed folding rate constant, k f. Under these conditions, PS binding to Rp reached equilibrium within the dead-time of mixing (<8 sec), as judged by Trp-fluorescence.
(§1) The change in stability of the folding transition state upon mutation was calculated using [drawing 3] (3) where k f, wt and k f, mut are the PS-catalyzed folding rate constants of the wild-type and mutant PS peptides. The change in equilibrium stability of PS-Np relative to PS-Rp upon mutation of the PS (ΔΔGPS(Np-Rp)) was determined as the difference between the changes in binding energies, using [drawing 4] (4) and [drawing 5] (5)
Temperature dependence of PS-catalyzed folding
PS-catalyzed folding could be measured only up to 15 °C for PSwt, as the reaction was too fast at higher temperatures. […] Given the linear temperature dependence it could be reasonably assumed that changes in activation energies (mutant – wild-type) would be unchanged from 15 °C to 20 °C, and so could be compared directly with changes in binding energies (wild-type – mutant) that were determined at 20 °C.

refolded pepsin (Rp) [2] = biological target: T1, refolded pepsin (Rp); experiment: PS binding to Rp (Trp-fluorescence); set-up: species or system porcine; details: for Kd: 0.6-1.2 µM Rp, 20 mM acetic acid/NaOH pH 5.3 without added NaCl, ≥10 min, Trp-fluorescence ex 295 nm, em 315 nm, mean ± SD from non-linear curve fitting, 3-5 measurements, read-out: K d (PS-Rp dissociation constant); for Kd / ΔΔGPS-Rp (change in PS-Rp binding energy upon mutation): 20°C; for ΔΔGPS-Rp (change in PS-Rp binding energy upon mutation): from K d, pH 5.3, relative to WT, ± SD by propagation of errors
Protocol: The change in intrinsic tryptophan fluorescence of pepsin was used to measure the binding of PS to Rp and to determine the dissociation constant, K d. Rp solutions were diluted to between 0.6 and 1.2 µM in 20 mM acetic acid/NaOH buffer, pH 5.3, and mixed with various amounts of PS. After incubating the samples at 20°C for ≥10 minutes, the intrinsic tryptophan fluorescence was measured using a PTI spectrofluorophotometer (Photon Technology International, Inc., Birmingham NJ, USA), with excitation at 295 nm and emission measured at 315 nm. The change in fluorescence, ΔF i, at each PS concentration, [PS], was normalized relative to the maximum change, ΔF max, and fit according to [drawing 1] (1) where [Rp] is the total concentration of pepsin.
PS binding to Rp was measured in buffer without added 100 mM NaCl in order to obtain more accurate measurements of K d, owing to a larger change in signal in the absence of salt. Additionally, without added 100 mM NaCl it was possible to isolate the PS-Rp binding step from the catalyzed folding step thereby improving the determination of K d.
as §1
(§2) Here, ΔΔGbind refers to either ΔΔGPS-Rp, determined from K d values, or ΔΔGPS-Np, determined from K i values. The Φ-value for each mutant corresponds to eq 3 divided by eq 5. Additional details are included in the supporting information section (Text S1).

native pepsin (Np) = biological target: T2, native pepsin (Np) (Sus scrofa, UniProt P00791); experiment: PS binding to Np (competitive inhibition of KPAEFF(NO2)AL hydrolysis); type: biochemical, porcine; details: for Ki: 10 nM Np, 20 mM acetic acid/NaOH pH 5.3, 100 mM NaCl, 5 min incubation, substrate KPAEFF(NO2)AL 0.1 mM, absorbance 300 nm, competitive model, mean ± SD from non-linear curve fitting, 3-5 measurements, read-out: K i (PS-Np inhibition constant); for Ki / ΔΔGPS-Np (change in PS-Np binding energy upon mutation): 20°C; for ΔΔGPS-Np (change in PS-Np binding energy upon mutation): from K i, pH 5.3, relative to WT, ± SD by propagation of errors; for effect on affinity for Np / PS-Np stability (in words): pH 5.3, 20°C, PS inhibition of Np, compared with PSwt
T2 construct: Only the R13 and K36 side-chains of the PS form hydrogen bonds with the mature pepsin domain; purchased Sigma (St. Louis, MO, USA)
T2 sequence (P00791 60-385): as above
Protocol: PS binding to Np was determined by using the PS as a competitive inhibitor and measuring the inhibition constant, K i. Hydrolysis of the KPAEFF(NO2)AL substrate was measured by following the decrease in absorbance at 300 nm using a Biochrom Ultrospec 3100pro UV-Vis spectrophotometer (Biochrom Ltd., Cambridge, England) in 20 mM acetic acid/NaOH buffer, pH 5.3, containing 100 mM NaCl. Np samples were diluted to 10 nM and incubated with PS for 5 min at 20°C and assayed for activity. The reaction rates were normalized to the activity in the absence of PS and the data fit using the competitive inhibitor form of the Michaelis-Menten equation [drawing 2] (2) where v0 is the initial reaction rate, V max is the maximum reaction rate, [S] is the substrate concentration (fixed at 0.1 mM), [I] is the inhibitor concentration, and K M is the Michaelis constant.
as §1, §2

[3] = test system: pepsin (PS-Rp, PS-TS, PS-Np complexes); experiment: Φ-value analysis from PS-catalyzed folding and binding constants; set-up: species or system porcine; details: ± SD by propagation of errors; for Φ: ratio ΔΔG^‡/ΔΔGPS(Np-Rp); for ΔΔGPS(Np-Rp) (change in equilibrium stability of PS-Np relative to PS-Rp): ΔΔGPS-Np minus ΔΔGPS-Rp
Protocol: Calculation of Φ-values from PS-catalyzed folding and binding constants
as §1, §2
As outlined below, ∆Gbind values are used to calculate ∆∆GPS(Np-Rp), which is the change in the equilibrium free energy difference between PS-Np and PS-Rp upon mutation of the PS (for a diagram of the folding reaction, see Fig S1)
ΔΔGbind can refer to either ∆∆G^PS-Np(wt-mut) or ∆∆G^PS-Rp(wt-mut). Also, we can write ∆Gbind in terms of its components
where ∆GPS, ∆Gpepsin and ∆Gsolvent refer to the change in free energy of the PS, pepsin and the solvent upon PS binding to pepsin, respectively. Combining equations S1 and S2 gives
The contribution of each component to ∆∆Gbind will depend on the particular mutation (e.g., nature of substitution, location within folded structure, solvent accessibility). This is the general case for protein engineering analysis, in which the effects of mutations on changes in equilibrium and activation energies are the result of many individual interaction energy terms, including solvent terms, as previously explained in detail [Fersht AR, Matouschek A, Serrano L (1992) The folding of an enzyme I. Theory of protein engineering analysis of stability and pathway of protein folding. J Mol Biol 224: 771‒782]. Most importantly, there is no requirement to separate ΔΔGbind into its components in order to proceed with analysis as we are interested in the overall change in equilibrium stability of the PS-pepsin complex (∆∆GPS(Np-Rp))
This bimolecular approach to Φ-value analysis of protein folding is qualitatively identical to Φ-value analysis as it was originally applied to the study of enzyme catalysis. As outlined previously [Fersht AR], changes in the free energy of enzyme (E) binding to substrate (S) or product (P) are used to determine the change in free energy difference between E-P and E-S upon mutation, ∆∆G^EP-ES(wt-mut), where
As these are at the scale of global energy terms, equations S4 and S5 are equivalent and PS-catalyzed folding can be treated similarly as enzyme catalysis, in which the PS is the foldase and the denatured and natively folded protein are the substrate and product, respectively. However, protein folding reactions are more complicated to interpret at the level of individual interaction energy terms, which are more numerous [Fersht AR].
Changes in the binding energies between PS-Rp and PS-Np upon PS mutation can then be used to determine Φ-values with the following considerations:
1. Free PS is unstructured (see Fig S6), so Ala mutations are expected to have a negligible effect on the stability and conformation of free PS.
2. Changes in binding and folding upon mutation can be localized to the loss of interactions in the immediate vicinity of the truncation mutation (i.e., larger residue mutated to Ala), and not due to gross conformational changes of the PS or changes in the binding/folding mechanism (consider as strong evidence that all of the mutant PS’s readily catalyze folding to the native, active form).
3. Changes in PS-Rp and PS-Np binding energies upon mutation (∆∆G^PS-Np(wt-mut) and ∆∆G^PS-Rp(wt-mut)) are measured directly, while the change in the PS-TS binding energy (∆∆G^PS-TS(wt-mut)) is the sum of ∆∆G^PS-Rp(wt-mut) and ∆∆G^‡(wt-mut).
4. Φ-values are calculated using […]

pepsin = details: native state relative to an intermediate state; ref [7]; cited from earlier work
Description: General thermodynamic and kinetic features of protein folding are known, such as that the natively folded conformation of a protein is thermodynamically stabilized and that there is a relationship between topology and folding rate, which holds for both two-state and multi-state folding proteins, [3]. However, zymogen-derived proteins which require a prosegment (PS) domain to catalyze folding, such as the serine peptidases αLP [4], SGPB [5], and subtilisin [6], and the aspartic peptidase pepsin [7], deviate from the common thermodynamic and kinetic trends in protein foldin ... || Pepsin, which is derived from its zymogen pepsinogen, folds to a thermodynamically stable yet non-native form (termed refolded pepsin, Rp) upon removal from denaturing conditions. […] In the case of pepsin, Rp was characterized by a ΔG unf of 5.8 kcal/mol, a 10% increase in unordered secondary structure and identical tertiary structure to Np (both yield R g ∼20 Å).

[4] = pH 5.3, 20°C, compared with PSwt

Substance | k f (PS-catalyzed folding rate constant) (refolded pepsin (Rp) [1]) [min⁻¹] | ΔΔG^‡ (change in folding activation energy upon mutation) (refolded pepsin (Rp) [1]) [kcal/mol] | effect on rate of PS-catalyzed folding (in words) (refolded pepsin (Rp) [1]) | Kd (refolded pepsin (Rp) [2]) [nM] | ΔΔGPS-Rp (change in PS-Rp binding energy upon mutation) (refolded pepsin (Rp) [2]) [kcal/mol] | Ki (native pepsin (Np)) [nM] | ΔΔGPS-Np (change in PS-Np binding energy upon mutation) (native pepsin (Np)) [kcal/mol] | Φ [3] | ΔΔGPS(Np-Rp) (change in equilibrium stability of PS-Np relative to PS-Rp) [3] [kcal/mol] | effect on affinity for Rp / PS-Rp stability (in words) (refolded pepsin (Rp) [2]; [4]) | reduction in binding affinity for Rp (refolded pepsin (Rp) [2]; [4]) [fold] | effect on affinity for Np / PS-Np stability (in words) (native pepsin (Np)) | ΔG N-I (pepsin) [kcal/mol]
LVKVPAVRKKSLRQNLIKNGKLKDFLKTHKHNPASKYFPEAAAL [L6A] | 0.13 ± 0.01 | 1.36 ± 0.15 | slowest folding rate | 640 ± 90 | 0.43 ± 0.10 | 193 ± 38.8 | 0.64 ± 0.16 | – | – | – | – | – | –
LVKVPLVRKKALRQNLIKNGKLKDFLKTHKHNPASKYFPEAAAL [S11A] | 0.18 ± 0.02 | 1.18 ± 0.15 | a burst-phase in the folding kinetics was noticeable | 680 ± 70 | 0.47 ± 0.08 | 270 ± 31.5 | 0.83 ± 0.12 | 3.2±1.4 | 0.36 ± 0.15 | – | – | – | –
LVKVPLVRKKSLAQNLIKNGKLKDFLKTHKHNPASKYFPEAAAL [R13A] | 0.24 ± 0.02 | 1.02 ± 0.15 | – | 1960 ± 290 | 1.08 ± 0.10 | 382 ± 37.2 | 1.03 ± 0.12 | – | – | destabilized both the PS-Np and PS-Rp complexes | 7 | largest reduction in affinities for Np; also recorded: destabilized both the PS-Np and PS-Rp complexes | –
LVKVPLVRKKSLRQNLIKNGKLKDALKTHKHNPASKYFPEAAAL [F25A] | 0.26 ± 0.04 | 0.96 ± 0.17 | – | 250 ± 30 | -0.12 ± 0.08 | 230 ± 29.1 | 0.74 ± 0.13 | 1.1 and 1.1±0.3 | 0.86 ± 0.15 | negligible effect on PS-Rp binding | – | – | –
LVKVPLVRKKSLRQNLIKNGKLKDFLKTHKHNPASAYFPEAAAL [K36A] | 0.28 ± 0.03 | 0.94 ± 0.15 | – | 720 ± 140 | 0.50 ± 0.13 | 113 ± 20.3 | 0.33 ± 0.15 | – | – | nearly equally destabilizing to PS-Rp and PS-Np | – | nearly equally destabilizing to PS-Rp and PS-Np | –
pepsin: Porcine pepsin A (EC 3.4.23.1); native pepsin (Np) | – | – | – | – | – | – | – | – | – | – | – | – | -0.1
